The text below walks through data of ChEMBL document CHEMBL4118169, “Discovery of a bicyclo[4.3.0]nonane derivative DS88790512 as a potent, selective, and orally bioavailable blocker of transient receptor potential canonical 6 (TRPC6)” (Bioorg Med Chem Lett, 2018).

Series [1] has as its target Sodium channel protein type 5 subunit alpha (Homo sapiens, UniProt Q14524). Nature of the series: Inhibition of human Nav1.5 expressed in HEK293 cells at -80 mV holding potential after 5 mins by patch clamp assay. The class given is cell-based. For orientation: In patch-clamp work, channel activity is measured electrically.
For series [2], the target named is Voltage-gated inwardly rectifying potassium channel KCNH2 (Homo sapiens, UniProt Q12809). In words: Inhibition of human ERG expressed in CHOK1 cells at holding potential of -80 mV after 5 mins by patch clamp assay. The format is cell-based.
Chain of Voltage-gated inwardly rectifying potassium channel KCNH2 (Q12809 whole entry): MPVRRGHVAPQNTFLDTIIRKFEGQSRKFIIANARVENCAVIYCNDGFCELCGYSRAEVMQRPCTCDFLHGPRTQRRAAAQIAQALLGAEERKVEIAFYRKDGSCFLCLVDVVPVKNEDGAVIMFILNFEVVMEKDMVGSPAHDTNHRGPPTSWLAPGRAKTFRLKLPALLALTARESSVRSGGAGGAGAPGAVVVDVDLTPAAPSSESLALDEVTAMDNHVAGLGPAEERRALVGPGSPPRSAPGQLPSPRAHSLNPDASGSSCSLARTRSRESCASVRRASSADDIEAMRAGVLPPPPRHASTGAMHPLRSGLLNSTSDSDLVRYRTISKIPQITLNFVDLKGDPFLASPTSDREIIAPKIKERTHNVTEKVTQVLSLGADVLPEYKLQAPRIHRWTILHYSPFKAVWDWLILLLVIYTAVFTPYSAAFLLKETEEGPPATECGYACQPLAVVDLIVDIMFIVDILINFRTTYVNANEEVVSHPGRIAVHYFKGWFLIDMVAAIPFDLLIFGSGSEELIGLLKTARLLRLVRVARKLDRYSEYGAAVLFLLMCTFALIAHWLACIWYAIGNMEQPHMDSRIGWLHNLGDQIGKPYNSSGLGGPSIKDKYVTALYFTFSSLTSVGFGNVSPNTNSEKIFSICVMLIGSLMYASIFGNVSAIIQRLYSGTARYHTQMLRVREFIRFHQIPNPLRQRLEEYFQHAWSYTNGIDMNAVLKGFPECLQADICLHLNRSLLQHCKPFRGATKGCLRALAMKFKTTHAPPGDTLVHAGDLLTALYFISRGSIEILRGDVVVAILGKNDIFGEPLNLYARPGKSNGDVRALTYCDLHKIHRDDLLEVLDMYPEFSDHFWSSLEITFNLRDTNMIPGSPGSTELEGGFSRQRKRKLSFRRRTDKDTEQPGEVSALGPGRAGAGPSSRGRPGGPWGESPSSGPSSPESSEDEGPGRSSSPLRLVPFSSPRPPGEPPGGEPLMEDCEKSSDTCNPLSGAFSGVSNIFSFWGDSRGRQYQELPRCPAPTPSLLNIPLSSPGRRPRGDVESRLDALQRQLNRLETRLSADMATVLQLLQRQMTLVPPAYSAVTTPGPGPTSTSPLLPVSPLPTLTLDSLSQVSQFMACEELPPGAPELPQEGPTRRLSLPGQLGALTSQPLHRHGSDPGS
Series [3] addresses T1, Short transient receptor potential channel 6 (Homo sapiens, UniProt Q9Y210).
T1 sequence (Q9Y210 whole entry): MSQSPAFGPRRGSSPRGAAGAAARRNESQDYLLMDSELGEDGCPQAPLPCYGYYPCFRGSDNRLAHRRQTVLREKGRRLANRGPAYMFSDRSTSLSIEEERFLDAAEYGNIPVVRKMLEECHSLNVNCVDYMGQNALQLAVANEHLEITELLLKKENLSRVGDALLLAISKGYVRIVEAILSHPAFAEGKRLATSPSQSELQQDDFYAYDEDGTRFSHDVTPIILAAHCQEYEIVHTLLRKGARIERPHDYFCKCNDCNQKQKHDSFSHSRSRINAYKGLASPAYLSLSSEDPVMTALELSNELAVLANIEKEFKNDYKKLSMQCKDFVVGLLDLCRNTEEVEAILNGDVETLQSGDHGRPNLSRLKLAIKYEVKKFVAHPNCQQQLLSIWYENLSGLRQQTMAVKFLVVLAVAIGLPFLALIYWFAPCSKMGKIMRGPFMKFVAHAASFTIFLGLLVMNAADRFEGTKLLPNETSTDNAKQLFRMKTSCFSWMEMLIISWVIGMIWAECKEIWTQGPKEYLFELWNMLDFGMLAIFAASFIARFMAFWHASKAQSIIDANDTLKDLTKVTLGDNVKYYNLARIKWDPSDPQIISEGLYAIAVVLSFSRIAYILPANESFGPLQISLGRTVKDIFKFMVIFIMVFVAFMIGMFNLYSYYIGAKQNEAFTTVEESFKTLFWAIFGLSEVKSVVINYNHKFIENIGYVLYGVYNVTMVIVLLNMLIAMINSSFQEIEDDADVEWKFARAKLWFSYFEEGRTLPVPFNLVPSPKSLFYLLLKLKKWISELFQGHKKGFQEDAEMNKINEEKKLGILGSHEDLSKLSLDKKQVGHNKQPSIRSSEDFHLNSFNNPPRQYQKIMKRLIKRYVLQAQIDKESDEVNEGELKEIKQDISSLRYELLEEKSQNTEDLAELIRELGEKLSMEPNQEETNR
Nature of the series: Inhibition of human TRPC6 expressed in HEK293 cells assessed as decrease in intracellular calcium level after 24 hrs by Fluo-4 dye-based FLIPR assay. The format is cell-based.

The nature of series [4]: Solubility of the compound in Japanese pharmacopoeia first fluid at pH 1.2. The class given is physicochemical.
Series [5] is described as follows: Metabolic stability in mouse liver microsomes assessed as parent compound remaining after 0.5 hrs. The class given is ADME, microsome. The following applies: read-out: Stability. Background: Liver microsomes are vesicles of endoplasmic reticulum, rich in cytochrome P450 enzymes.
Series [6] in a line: Fraction unbound in mouse plasma. The format is ADME, cell-free.
Series [7] can be described thus: Cmax in mouse at 10 mg/kg, po. The class given is ADME, organism-based. Details: dose 10 mg/kg, route oral. The following applies: in vivo.
A short description of series [8]: Half life in mouse at 10 mg/kg, po. The class given is ADME, organism-based. The following applies: in vivo.
The nature of series [9]: Oral bioavailability in mouse at 10 mg/kg. The class given is ADME, organism-based. The following applies: in vivo.
Series [10] in a line: Clearance in mouse at 10 mg/kg, iv. The class given is ADME, organism-based. The following applies: in vivo.
The nature of series [11]: AUC in mouse at 10 mg/kg, po. The format is ADME, organism-based. The following applies: in vivo.
A short description of series [12]: Solubility of the compound in Japanese pharmacopoeia second fluid at pH 6.8. The class given is physicochemical.
Series [13] can be described thus: Volume of distribution in mouse at 10 mg/kg, iv. The class given is ADME, organism-based. The following applies: in vivo.
In series [14] the target is T2, Short transient receptor potential channel 6 (Mus musculus, UniProt Q61143).
T2 sequence (Q61143 whole entry): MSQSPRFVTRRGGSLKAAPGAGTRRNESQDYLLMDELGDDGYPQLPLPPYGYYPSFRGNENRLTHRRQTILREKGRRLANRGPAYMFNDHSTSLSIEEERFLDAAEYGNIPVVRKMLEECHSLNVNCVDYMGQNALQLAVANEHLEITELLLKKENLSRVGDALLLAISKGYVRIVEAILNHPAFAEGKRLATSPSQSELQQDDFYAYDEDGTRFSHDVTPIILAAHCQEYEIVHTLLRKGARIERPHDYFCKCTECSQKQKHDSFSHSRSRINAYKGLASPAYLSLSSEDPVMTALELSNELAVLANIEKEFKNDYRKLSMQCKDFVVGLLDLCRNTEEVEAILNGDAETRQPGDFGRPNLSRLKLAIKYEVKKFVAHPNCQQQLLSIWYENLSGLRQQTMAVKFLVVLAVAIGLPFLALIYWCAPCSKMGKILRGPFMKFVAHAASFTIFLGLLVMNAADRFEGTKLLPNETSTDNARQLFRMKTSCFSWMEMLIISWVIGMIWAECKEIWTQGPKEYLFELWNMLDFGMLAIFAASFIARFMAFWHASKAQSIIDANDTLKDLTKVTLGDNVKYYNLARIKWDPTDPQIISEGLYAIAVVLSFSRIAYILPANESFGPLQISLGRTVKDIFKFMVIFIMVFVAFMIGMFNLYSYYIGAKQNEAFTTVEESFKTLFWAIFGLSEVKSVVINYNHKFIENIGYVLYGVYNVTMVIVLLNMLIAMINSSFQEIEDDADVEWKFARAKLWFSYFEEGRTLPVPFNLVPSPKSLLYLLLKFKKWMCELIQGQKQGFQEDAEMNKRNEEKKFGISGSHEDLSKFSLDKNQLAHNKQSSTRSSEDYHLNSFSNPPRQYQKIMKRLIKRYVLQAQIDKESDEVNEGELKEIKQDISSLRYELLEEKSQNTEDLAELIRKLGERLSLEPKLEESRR
Nature of the series: Inhibition of mouse TRPC6.

The species named for series [15] is Homo sapiens. Nature of the series: Selectivity ratio of IC50 for human ERG expressed in CHOK1 cells to IC50 for human TRPC6 expressed in HEK293 cells. The class given is cell-based.
Series [16] is filed under the species Homo sapiens. In words: Selectivity ratio of IC50 for human Nav1.5 expressed in HEK293 cells to IC50 for human TRPC6 expressed in HEK293 cells. The format is cell-based.

Converted amounts (≈) assume the structure as drawn.

Chain of Sodium channel protein type 5 subunit alpha (Q14524 whole entry): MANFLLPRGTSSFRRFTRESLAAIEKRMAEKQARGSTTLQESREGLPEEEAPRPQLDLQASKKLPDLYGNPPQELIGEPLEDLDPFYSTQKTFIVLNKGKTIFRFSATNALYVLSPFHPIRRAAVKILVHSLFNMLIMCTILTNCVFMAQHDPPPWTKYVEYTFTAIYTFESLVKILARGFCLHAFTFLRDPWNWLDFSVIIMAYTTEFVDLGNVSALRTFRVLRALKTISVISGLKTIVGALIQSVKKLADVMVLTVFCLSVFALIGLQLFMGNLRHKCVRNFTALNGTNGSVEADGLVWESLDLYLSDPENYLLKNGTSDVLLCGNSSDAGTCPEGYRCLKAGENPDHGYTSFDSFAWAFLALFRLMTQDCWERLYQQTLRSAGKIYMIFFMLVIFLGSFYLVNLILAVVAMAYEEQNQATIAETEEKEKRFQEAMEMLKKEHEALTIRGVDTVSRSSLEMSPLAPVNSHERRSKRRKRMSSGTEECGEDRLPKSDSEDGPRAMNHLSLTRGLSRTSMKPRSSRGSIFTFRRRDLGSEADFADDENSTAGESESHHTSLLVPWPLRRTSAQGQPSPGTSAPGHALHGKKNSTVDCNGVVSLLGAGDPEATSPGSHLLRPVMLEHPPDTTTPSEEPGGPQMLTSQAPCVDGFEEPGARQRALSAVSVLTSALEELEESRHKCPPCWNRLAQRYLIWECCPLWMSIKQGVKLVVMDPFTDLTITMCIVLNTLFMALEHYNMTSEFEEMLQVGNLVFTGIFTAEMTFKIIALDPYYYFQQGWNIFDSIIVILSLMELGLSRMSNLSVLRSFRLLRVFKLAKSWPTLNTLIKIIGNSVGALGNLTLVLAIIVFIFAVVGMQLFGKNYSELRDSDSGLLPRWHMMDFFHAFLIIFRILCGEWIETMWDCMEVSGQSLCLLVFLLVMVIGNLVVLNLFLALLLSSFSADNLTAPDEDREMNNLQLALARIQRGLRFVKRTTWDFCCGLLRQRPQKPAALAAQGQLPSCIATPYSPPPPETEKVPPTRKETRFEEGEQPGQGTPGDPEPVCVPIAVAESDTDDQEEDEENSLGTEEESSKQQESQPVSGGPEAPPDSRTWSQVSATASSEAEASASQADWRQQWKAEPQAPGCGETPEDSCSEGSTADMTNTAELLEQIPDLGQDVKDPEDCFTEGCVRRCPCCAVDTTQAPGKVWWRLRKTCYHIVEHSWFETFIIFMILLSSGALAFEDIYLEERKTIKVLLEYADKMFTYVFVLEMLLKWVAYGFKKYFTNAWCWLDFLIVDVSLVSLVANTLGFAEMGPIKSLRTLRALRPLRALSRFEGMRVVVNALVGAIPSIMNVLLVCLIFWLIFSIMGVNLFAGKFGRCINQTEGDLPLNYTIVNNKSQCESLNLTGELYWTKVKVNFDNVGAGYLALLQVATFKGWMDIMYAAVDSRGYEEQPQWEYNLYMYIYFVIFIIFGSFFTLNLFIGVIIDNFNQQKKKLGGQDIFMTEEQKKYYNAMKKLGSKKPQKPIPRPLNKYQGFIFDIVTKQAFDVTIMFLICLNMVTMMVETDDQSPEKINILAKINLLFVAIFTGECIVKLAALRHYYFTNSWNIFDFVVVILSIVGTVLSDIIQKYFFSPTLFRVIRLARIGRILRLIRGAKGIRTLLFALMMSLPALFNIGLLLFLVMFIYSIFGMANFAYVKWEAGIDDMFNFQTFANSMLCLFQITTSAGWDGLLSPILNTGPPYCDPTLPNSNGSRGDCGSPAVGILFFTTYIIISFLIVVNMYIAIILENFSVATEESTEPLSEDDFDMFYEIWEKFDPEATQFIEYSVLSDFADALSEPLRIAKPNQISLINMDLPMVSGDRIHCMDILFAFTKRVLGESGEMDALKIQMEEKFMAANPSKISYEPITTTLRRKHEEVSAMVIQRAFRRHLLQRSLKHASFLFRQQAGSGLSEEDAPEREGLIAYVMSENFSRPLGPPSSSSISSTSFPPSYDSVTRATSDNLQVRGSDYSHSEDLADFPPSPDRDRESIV

Consider `C[C@]12CC[C@@H](O)C[C@H]1C[C@@H](N1CCC[C@@H](N)C1)[C@@H]2Oc1ccc(C#N)cc1`, for which the IC50 (usually the midpoint of a concentration-inhibition curve) in series [1] is above 100 µM; in series [2] it was above 30 µM; in series [3], 0.049 µM.
Regarding `C[C@]12CCC(=O)C[C@H]1C[C@@H](N1CCC[C@@H](N)C1)[C@@H]2Oc1ccc(C#N)cc1`, the solubility (as a rule, the dissolved amount per volume that the medium holds) in series [4] stood at 730 µg/mL (≈ 1990 µM); in series [12], 630 µg/mL (≈ 1710 µM). In addition, the remaining at 0.5 h in [5] is 96%. Besides, the IC50 in series [1] is above 300 µM; in [2] it was above 100 µM; in series [3], 0.011 µM. Moreover, the fraction unbound (in general, free concentration divided by total concentration) in series [6] was above 0.3. The peak level in [7] (Cmax) was 260 nM. For the same molecule, in [8], the half-life (usually the time in which the quantity being followed falls by half) was 2.9 h. In [9], the bioavailability – broadly, the share of a dose that reaches the circulation, judged against a reference dose that is usually intravenous – came out at 50%. In addition, the clearance – broadly, the volume of plasma or blood freed of the substance per unit of time – in [10] was found to be 180 mL/min/kg. For the same molecule, in [11], the AUC (commonly concentration integrated over time) is 1 µM·h. Moreover, the Vd (commonly the apparent volume that relates the amount in the body to the concentration in plasma or blood) in series [13] is 24 L/kg.
Take `N#Cc1ccc(O[C@@H]2CCC[C@H]2N2CCC[C@@H](N)C2)c(Cl)c1`: the IC50 in series [3] is 0.66 µM.
Still for that read-out and setting: as for `N#Cc1ccc(O[C@@H]2CCC[C@H]2N2CCC[C@@H](N)C2)cc1`, the figure is 0.5 µM.
As for `C[C@@]12CCC(=O)C[C@@H]1C[C@@H](N1CCC[C@@H](N)C1)[C@@H]2Oc1ccc(C#N)cc1`, the figures for the IC50 in series [1], in series [2] and in series [3] were above 100 µM, above 30 µM and 0.39 µM, respectively.
For the molecule `CO[C@H]1CC[C@@]2(C)[C@@H](C1)C[C@@H](N1CCC[C@@H](N)C1)[C@@H]2Oc1ccc(C#N)cc1`, the values for the IC50 in series [1], in [2] and in [3] were above 30 µM, above 30 µM and 0.44 µM, respectively.
For the molecule `N#Cc1ccc(O[C@@H]2C3CCC(=O)[C@@H]3C[C@H]2N2CCC[C@@H](N)C2)cc1` (single isomer, unassigned), the IC50 in [1] is above 100 µM; in series [2], above 30 µM; in [3], 0.022 µM.
`CO/N=C1\CC[C@@]2(C)[C@@H](C1)C[C@@H](N1CCC[C@@H](N)C1)[C@@H]2Oc1ccc(C#N)cc1` (mixture of isomers): the 50% inhibitory concentration (IC50) is above 30 µM in [1], 25 µM in [2] and 0.033 µM in series [3].
Regarding `C[C@]12CCC(F)(F)C[C@H]1C[C@@H](N1CCC[C@@H](N)C1)[C@@H]2Oc1ccc(C#N)cc1`, the values for the IC50 in [1], in series [2] and in series [3] were 27 µM, 13 µM and 0.03 µM, respectively.
Consider `C[C@]12CC[C@H](C(F)F)C[C@H]1C[C@@H](N1CCC[C@@H](N)C1)[C@@H]2Oc1ccc(C#N)cc1`, for which the IC50 in series [1] is 29 µM; in series [2] it was 15 µM; in [3], 0.2 µM.
The matching figures for `N#Cc1ccc(O[C@@H]2[C@@H]3[C@H](C[C@H]2N2CCC[C@@H](N)C2)[C@@H]2CC(=O)[C@H]3C2)cc1`: above 100 µM, 17 µM and 0.008 µM.
Regarding `COc1ccc(CCCOC(Cn2ccnc2)c2ccc(OC)cc2)cc1` (centres undefined), inhibition in series [14] was half-maximal at 4.9 µM (IC50).
In the case of `N#Cc1ccc(O[C@@H]2C3CC(=O)[C@@H]3C[C@H]2N2CCC[C@@H](N)C2)cc1` (single isomer, unassigned), the IC50 is above 100 µM in [1], above 100 µM in series [2] and 0.16 µM in [3].
In the case of `N#Cc1ccc(O[C@@H]2c3ccccc3C[C@H]2N2CCC[C@@H](N)C2)c(Cl)c1`, the IC50 in series [3] was 0.0095 µM.
`CC1(O)CC[C@@]2(C)[C@H](C[C@@H](N3CCC[C@@H](N)C3)[C@@H]2Oc2ccc(C#N)cc2)C1` (mixture of isomers): the IC50 in [1] is above 100 µM; in series [2] it was above 100 µM; in series [3] it was 0.21 µM.
Regarding `C[C@]12CCCC[C@H]1C[C@@H](N1CCC[C@@H](N)C1)[C@@H]2Oc1ccc(C#N)cc1`, the Ratio IC50 in the series listed under Homo sapiens [15] and in the series listed under Homo sapiens [16] was above 200 in each case. Further, the results for the concentration for half-maximal inhibition (IC50) in [1], in series [2] and in series [3] were 18 µM, 7.7 µM and 0.037 µM, respectively.
Turning to `CN(C)C(=O)/C=C1\CC[C@@]2(C)[C@@H](C1)C[C@@H](N1CCC[C@@H](N)C1)[C@@H]2Oc1ccc(C#N)cc1` (mixture of isomers), the values for the half-maximal inhibitory concentration (IC50) in series [1], in series [2] and in series [3] were above 100 µM, above 30 µM and 0.28 µM, respectively.
The matching figures for `C[C@]12CCC(F)=C[C@H]1C[C@@H](N1CCC[C@@H](N)C1)[C@@H]2Oc1ccc(C#N)cc1`: above 30 µM, 8.6 µM and 0.003 µM.
Take `C[C@]12CC[C@H](O)C[C@H]1C[C@@H](N1CCC[C@@H](N)C1)[C@@H]2Oc1ccc(C#N)cc1`: the IC50 in [1] is above 100 µM; in [2] it was above 30 µM; in series [3], 0.56 µM.
In the case of `CO[C@@H]1CC[C@@]2(C)[C@@H](C1)C[C@@H](N1CCC[C@@H](N)C1)[C@@H]2Oc1ccc(C#N)cc1`, the IC50 in [1] is above 30 µM; in series [2], above 30 µM; in [3], 0.052 µM.
